Measured values as given in patent publication US9315486B2, “Therapeutic cyclopentanols, compositions thereof, and methods for use thereof” (Allergan, Inc., priority 2013, dated 2016).

Key:
EP2 [1] = target: T1, EP2 (Homo sapiens, UniProt P43116); test: EP2 cAMP activity study; assay type: cell-based
Procedure: (§1) Data from running binding and activity studies on the compounds of the invention were carried out as described in U.S. Pat. No. 7,427,685, the contents of which are incorporated herein by reference.

EP4 [2] = target: T2, EP4 (Homo sapiens, UniProt P35408); test: EP4 Ca2+ signal activity study; assay type: cell-based
T2 sequence (P35408 whole entry): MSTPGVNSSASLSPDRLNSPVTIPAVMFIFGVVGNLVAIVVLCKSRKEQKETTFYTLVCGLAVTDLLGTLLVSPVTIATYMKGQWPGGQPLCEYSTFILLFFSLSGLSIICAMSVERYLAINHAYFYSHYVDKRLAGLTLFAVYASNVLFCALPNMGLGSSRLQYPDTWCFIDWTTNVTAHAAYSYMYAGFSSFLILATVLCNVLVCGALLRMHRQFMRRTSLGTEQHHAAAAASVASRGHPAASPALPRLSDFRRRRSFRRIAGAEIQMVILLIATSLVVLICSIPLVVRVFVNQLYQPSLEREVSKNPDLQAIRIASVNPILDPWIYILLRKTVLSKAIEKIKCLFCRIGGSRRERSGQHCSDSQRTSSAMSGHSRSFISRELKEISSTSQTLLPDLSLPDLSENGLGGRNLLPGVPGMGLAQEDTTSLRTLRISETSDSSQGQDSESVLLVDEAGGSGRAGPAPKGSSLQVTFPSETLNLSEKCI
Procedure: as §1

EP2 [3] = target: T1, EP2; test: EP2 binding study
Procedure: as §1

EP1 = target: T3, EP1 (Homo sapiens, UniProt P34995); test: EP1 activity study; assay type: cell-based
T3 sequence (P34995 1-402): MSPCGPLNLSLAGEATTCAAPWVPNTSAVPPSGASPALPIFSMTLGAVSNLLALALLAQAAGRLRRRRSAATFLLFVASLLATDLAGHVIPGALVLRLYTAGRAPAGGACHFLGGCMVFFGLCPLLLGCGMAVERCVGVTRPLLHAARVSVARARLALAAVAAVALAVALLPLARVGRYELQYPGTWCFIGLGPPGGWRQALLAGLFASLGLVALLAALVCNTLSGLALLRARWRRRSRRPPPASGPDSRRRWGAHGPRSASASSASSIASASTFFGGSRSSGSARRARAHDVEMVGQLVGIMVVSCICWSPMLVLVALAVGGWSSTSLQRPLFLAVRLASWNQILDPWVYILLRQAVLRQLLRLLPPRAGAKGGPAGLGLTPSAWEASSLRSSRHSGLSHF
Procedure: as §1

EP3 = target: T4, EP3 (Homo sapiens, UniProt P43115); test: EP3 activity study; assay type: cell-based
T4 sequence (P43115 1-390): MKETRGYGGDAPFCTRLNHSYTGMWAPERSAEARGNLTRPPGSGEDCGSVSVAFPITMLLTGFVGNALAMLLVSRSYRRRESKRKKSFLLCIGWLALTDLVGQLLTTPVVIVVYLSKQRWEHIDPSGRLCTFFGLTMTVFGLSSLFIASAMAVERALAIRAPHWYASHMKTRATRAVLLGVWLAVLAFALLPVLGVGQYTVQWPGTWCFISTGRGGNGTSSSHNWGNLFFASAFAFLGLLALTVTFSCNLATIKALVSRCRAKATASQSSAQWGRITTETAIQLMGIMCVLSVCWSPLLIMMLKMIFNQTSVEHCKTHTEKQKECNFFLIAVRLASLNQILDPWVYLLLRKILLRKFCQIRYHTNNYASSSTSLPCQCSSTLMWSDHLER
Procedure: as §1

EP4 [4] = target: T2, EP4; test: EP4 binding study
Procedure: as §1

EP2 [5] = target: T1, EP2; test: EP2 Ca2+ signal activity study; assay type: cell-based
Procedure: as §1

DP = target: T5, DP (Homo sapiens, UniProt Q13258); test: DP activity study; assay type: cell-based
T5 sequence (Q13258 1-359): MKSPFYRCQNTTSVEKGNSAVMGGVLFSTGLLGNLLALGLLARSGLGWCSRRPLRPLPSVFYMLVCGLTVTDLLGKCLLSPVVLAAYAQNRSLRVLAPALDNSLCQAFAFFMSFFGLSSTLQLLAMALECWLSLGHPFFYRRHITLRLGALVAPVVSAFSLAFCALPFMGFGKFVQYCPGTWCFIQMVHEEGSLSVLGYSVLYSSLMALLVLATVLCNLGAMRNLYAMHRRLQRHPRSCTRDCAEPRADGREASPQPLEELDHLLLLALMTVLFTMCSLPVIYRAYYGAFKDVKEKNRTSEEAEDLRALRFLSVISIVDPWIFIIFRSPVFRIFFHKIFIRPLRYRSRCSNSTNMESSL
Procedure: as §1

TP = target: T6, TP (Homo sapiens, UniProt P21731); test: TP activity study; assay type: cell-based
T6 sequence (P21731 1-343): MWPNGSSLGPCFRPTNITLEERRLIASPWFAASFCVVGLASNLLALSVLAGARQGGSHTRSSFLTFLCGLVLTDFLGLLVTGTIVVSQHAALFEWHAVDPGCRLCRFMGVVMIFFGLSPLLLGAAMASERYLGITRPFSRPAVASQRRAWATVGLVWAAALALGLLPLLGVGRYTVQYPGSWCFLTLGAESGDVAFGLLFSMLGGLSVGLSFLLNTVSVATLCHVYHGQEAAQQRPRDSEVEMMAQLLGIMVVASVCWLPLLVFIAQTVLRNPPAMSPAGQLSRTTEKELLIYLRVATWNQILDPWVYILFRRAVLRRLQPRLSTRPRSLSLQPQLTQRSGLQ
Procedure: as §1

T1 sequence (P43116 whole entry): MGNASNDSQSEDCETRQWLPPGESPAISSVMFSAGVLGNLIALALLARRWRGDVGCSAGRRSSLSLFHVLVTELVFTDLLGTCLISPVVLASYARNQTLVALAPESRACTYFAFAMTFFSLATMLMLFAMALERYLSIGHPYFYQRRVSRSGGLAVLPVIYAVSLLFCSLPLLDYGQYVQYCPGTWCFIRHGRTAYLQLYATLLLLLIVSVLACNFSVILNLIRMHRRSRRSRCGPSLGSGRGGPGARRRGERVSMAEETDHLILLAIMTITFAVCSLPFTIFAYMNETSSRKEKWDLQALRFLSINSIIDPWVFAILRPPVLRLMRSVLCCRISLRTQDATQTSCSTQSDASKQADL

Compound | EC50 (EP2 [1]) [nM] | EC50 (EP4 [2]) [nM] | EC50 (EP2 [3]) [nM] | EC50 (EP1) [nM] | EC50 (EP3) [nM] | EC50 (EP4 [4]) [nM] | EC50 (EP2 [5]) [nM] | EC50 (DP) [nM] | EC50 (TP) [nM]
CCCCC(O)[C@H](O)/C=C/[C@@H]1[C@@H](CCCc2ccc(C(=O)O)s2)[C@H](Cl)C[C@H]1O (stereo partly shown) | 2.3 | 45 | 148 | – | – | 490 | 9 | 886 | –
O=C(O)c1ccc(CCC[C@@H]2[C@@H](/C=C/[C@@H](O)CCCCCO)[C@H](O)C[C@H]2Cl)s1 | 0.4 | 68 | 147 | 101 | 129 | 1130 | 4 | 3350 | 7570
CCCC(O)CC(O)/C=C/[C@@H]1[C@@H](CCCc2ccc(C(=O)O)s2)[C@H](Cl)C[C@H]1O (stereo partly shown) | 3 | 23 | 716 | 1240 | 690 | 434 | 27 | 2260 | 4800

More lines, now with the values ahead:

EC50 (EP2 [1]) [nM] | EC50 (EP4 [2]) [nM] | EC50 (EP2 [3]) [nM] | EC50 (EP1) [nM] | EC50 (EP3) [nM] | EC50 (EP4 [4]) [nM] | EC50 (EP2 [5]) [nM] | EC50 (DP) [nM] | EC50 (TP) [nM] | Compound
14 | > 10000 | 365 | 4220 | 7140 | 3410 | 328 | – | – | C[C@@H](O)CCCC[C@@H](O)/C=C/[C@@H]1[C@@H](CCCc2ccc(C(=O)O)s2)[C@H](Cl)C[C@H]1O [5-(3-((1R,2R,3R,5R)-5-chloro-2-((3R,8R,E)-3,8-dihydroxynon-1-en-1-yl)-3-hydroxycyclopentyl)propyl)thiophene-2-carboxylic acid]
– | – | – | – | – | – | – | 6790 | – | C[C@@H](O)CCC[C@H](O)/C=C/[C@@H]1[C@@H](CCCc2ccc(C(=O)O)s2)[C@H](Cl)C[C@H]1O
1.4 | 455 | 363 | 207 | 222 | > 10000 | 29 | 4520 | – | C[C@@H](O)CCCC[C@H](O)/C=C/[C@@H]1[C@@H](CCCc2ccc(C(=O)O)s2)[C@H](Cl)C[C@H]1O [5-(3-((1R,2R,3R,5R)-5-Chloro-2-((3S 8R,E)-3,8-dihydroxynon-1-en-1-yl)-3-hydroxycyclopentyl)propyl)thiophene-2-carboxylic acid]
